Tests used:
[1] = system: primary human renal proximal tubule epithelial cells; assay: Cell cycle analysis (propidium iodide, flow cytometry); assay type: cell-based; conditions: 16 hours
Protocol: (§1) Representative histograms of cell cycle analysis of Primary human renal proximal tubule epithelial cells treated with varying concentrations of PD0332991 for 16 hours. Cells were harvested, fixed, stained, and analyzed by flow cytometry. Data was fitted using Mod-Fit™ software from Verity (Verity Software House, Topsham, Me., United States of America).
as §1, with “Cell” for “Representative histograms of cell”, “America). Corresponding % of cells in G1 (diamonds), G2/M (squares) and S (triangles) are shown on the graph.” for “America).”
Primary normal human renal proximal epithelial cells (American Type Culture Collection (ATCC), Manassas, Va., United States of America) were cultured in renal epithelial cell basal media supplemented with renal epithelial cell growth kit according to the manufacturer's recommendations. […] For the γH2AX assay, cells were fixed, permeabilized, and stained with anti-γH2AX as per γH2AX Flow Kit (Millipore, Billerica, Mass., United States of America). γH2AX levels were assessed by flow cytometry. Cell proliferation was assessed by seeding 1×10^3 cells per well in a 96-well tissue culture plate in 100 μL of growth medium. […]

[2] = system: mice treated with cisplatin; assay type: in vivo, mouse; conditions: single dose PD0332991 150 mg/kg oral gavage with cisplatin 15 mg/kg IP; 72 hours post treatment
Protocol: FIG. 7: CDK4/6 inhibition protects kidney function in mice treated with cisplatin. Cohorts of mice were treated with cisplatin (10 mg/kg IP) alone (squares), PD0332991 (150 mg/kg PO) alone (diamonds) or immediately prior to cisplatin (10 mg/kg) (triangles). Kidney function was measured at day 7 by quantification of blood urea nitrogen (BUN) in mg/dL and serum creatinine (Serum Cr) in mg/dL. Data represents the mean of 6 animals per cohort +/−standard error of the mean.
To determine if CDK4/6 inhibition around the time of DNA damage would protect renal function, mice were treated with cisplatin, a known causative agent of renal tubular damage in humans. Mice were treated with PD0332991 150 mg/kg or vehicle control by oral gavage and then received a single dose of cisplatin 15 mg/kg by IP injection. 72 hours post treatment mice were euthanized and blood was collected by cardiac puncture for BUN (blood urea nitrogen) and serum creatinine (SrCr) analysis. Serum BUN and SrCr are common markers of renal function and serum levels quickly elevated when kidney function has been acutely compromised.

[3] = system: murine memory and naive T cells; assay: Homeostatic T cell proliferation in mice (BrdU incorporation, Ki67); assay type: in vivo, mouse
Protocol: FIG. 11A: Acute inhibition of CDK4/6 selectively suppresses memory T cell homeostatic proliferation in mice. Mice were treated with PD0332991 (150 mg/kg by oral gavage). Proliferation of T-cells were assessed using BrdU and flow cytometry.
Animals were treated with CDK4/6 inhibitor (PD0332991, open bars) or vehicle (shaded bars) for 24 hours and euthanized. Splenocytes were isolated and stained for B and T cell markers. After gating on appropriate populations, Ki67 staining was performed as an indicator of proliferation and S-phase. Error bars show +/−SEM.
Acute, pharmacologic inhibition of CDK4/6 suppresses lymphocyte proliferation with the most pronounced effect on memory T cell homeostatic proliferation and germinal center formation in mice. To determine whether inhibiting CDK4/6 affects memory cell generation and maintenance, mice were treated with selective CDK4/6 inhibitors, PD 0332991 or an unrelated selective CDK4/6 inhibitor, 2BrIC. 2BrIC was synthesized by OTAVA Chemicals (Kiev, Ukraine) and can be prepared according to methods described in Zhu et al., J. Med. Chem. 46, 2027-2030 (2003).

CC(=O)c1c(C)c2cnc(Nc3ccc(N4CCNCC4)cn3)nc2n(C2CCCC2)c1=O [PD0332991, 6-acetyl-8-cyclopentyl-5-methyl-2-(5-piperazin-1-yl-pyridin-2-ylamino)-8H-pyrido-[2,3-d]-pyrimidin-7-one]
cell cycle arrest (G0/G1, G2/M, S fractions) ([1]; 0, 10 nM-1 uM): induces a G1 arrest | cytotoxicity during G1 arrest ([1]; varying concentrations): without evidence of cytotoxicity | protection of renal function (BUN and SrCr) [2]: abrogate the cisplatin-induced nephrotoxicity | in vivo BrdU incorporation of CD4+ and CD8+ murine T cells ([3]; 150 mg/kg by oral gavage): greatest effects seen in the CD44+CD25+ memory cells | homeostatic proliferation of memory vs naive T cells (BrdU incorporation, Ki67 expression) ([3]; murine cells, acute inhibition): more significant decrease in homeostatic proliferation of memory T cells than naive T cells
